Laboratory results as given in patent publication US20160304552A1, “MODIFIED NUCLEIC ACID MOLECULES AND USES THEREOF” (MODERNA THERAPEUTICS, INC., priority 2013, published 2016).

Tests used:
T7 RNA polymerase = T7 RNA polymerase (Escherichia phage T7, UniProt P00573); test: In vitro transcription yields of modified mRNA; type: biochemical; conditions: for EPO In Vitro Transcription yield: EPO mRNA made with the modified NTP(s); for GCSF In Vitro Transcription yield: GCSF mRNA made with the modified NTP(s); for Luc In Vitro Transcription yield: Luciferase mRNA made with the modified NTP(s)
Description: The in vitro transcription reaction generates mRNA containing modified nucleotides or modified RNA. The input nucleotide triphosphate (NTP) mix is made in-house using natural and unnatural NTPs.
A typical in vitro transcription reaction includes the following:
Incubation at 37° C. for 3 hr-5 hrs.
The crude IVT mix may be stored at 4° C. overnight for cleanup the next day. 1 U of RNase-free DNase is then used to digest the original template. After 15 minutes of incubation at 37° C., the mRNA is purified using Ambion's […]™ Kit (Austin, Tex.) following the manufacturer's instructions. This kit can purify up to 500 μg of RNA. Following the cleanup, the RNA is quantified using the NanoDrop and analyzed by agarose gel electrophoresis to confirm the RNA is the proper size and that no degradation of the RNA has occurred.
Modified mRNAs in TE buffer (1 μl) are used for Nanodrop UV absorbance readings to quantitate the yield of each modified mRNA from an in vitro transcription reaction (UV absorbance traces are not shown).

BJ fibroblast cells = test: Cytokine screen in BJ fibroblast cells, human CCL-5/RANTES ELISA; type: cell-based; conditions: BJ fibroblasts, 500 ng modRNA, 18 h to 22 h
Description: At 2 or 3 days prior to transfection, 100,000 BJ fibroblast cells (ATCC no. CRL-2522; Manassas, Va.) were harvested by treatment with trypsin-EDTA solution (LifeTechnologies, Grand Island, N.Y.) and seeded in a total volume of 500 ul EMEM medium (supplemented with 10% FCS and 10% Glutamax, both LifeTechnologies, Grand Island, N.Y.) per well in 24-well cell culture plates (Corning, Manassas, Va.). The cells were grown at 37° C. in a 5% CO2 atmosphere overnight. On the next day, 500 ng modRNA, harboring chemical modifications on the bases or the ribose units, were diluted in 25 ul final volume of OPTI-MEM (LifeTechnologies, Grand Island, N.Y.). Lipofectamine 2000 (LifeTechnologies, Grand Island, N.Y.) was used as transfection reagent and 1.0 ul was diluted in 25 ul final volume of OPTI-MEM. After 5 min incubation at room temperature, both solutions were combined and incubated an additional 15 min at room temperature. The 50 ul were added to the 500 ul cell culture medium containing the BJ fibroblast cells. The plates were then incubated as described above.
After 18 h to 22 h incubation, cell culture supernatants were collected and centrifuged at 10,000 rcf for 2 min. The cleared supernatants were transferred and analyzed with a human IFN-beta ELISA (R&D Systems, Minneapolis, Minn.; Cat. #s 41410-2) and human CCL-5/RANTES ELISA (R&D Systems, Minneapolis, Minn.; Cat. #s SRN00B) according to the manufacturer instructions. All samples were diluted until the determined values were within the linear range of the ELISA standard curves using a BioTek Synergy H1 plate reader (BioTek, Winooski, Vt.).

human PBMC = test: PBMC cytokine assay, interferon-alpha production (IFN-alpha multi-subtype ELISA); type: cell-based
Description: 50 mL of human blood from three donors was received from Research Blood Components (Brighton, Mass.) in sodium heparin tubes. […] The tubes were centrifuged at 2000 rpm for 30 minutes with low acceleration and braking (Thermo, Waltham, Mass., 75004506). The tubes were removed and the buffy coat PBMC layers were gently transferred to a fresh 50 mL conical and washed with DPBS. The tubes were centrifuged at 1450 rpm for 10 minutes. The supernatant was aspirated and the PBMC pellets were resuspended and washed in 50 mL of DPBS. The tubes were centrifuged at 1450 rpm for 10 minutes. […] The cell suspensions were adjusted to a concentration of 3.0×10^6 cells/mL live cells. […] Within 30 minutes, transfection mixtures were added to each well at a volume of 50 μL per well. […] The transfection mixtures were then transferred to each of the human PBMC plates at 50 μL per well (6 wells per mRNA sample). The plates were then incubated at 37° C. […] In order to harvest the supernatant, plates were centrifuged at 1450 rpm for 5 min in a swinging plate rotor. The supernatant of 6 wells transfected with the same mRNA was carefully harvested and pooled in a single well of a fresh 96-well plate. Supernatants were either frozen or used fresh until ELISA analysis was done. The ability of unmodified and modified mRNA to trigger innate immune recognition as measured by interferon-alpha production.

Sequence of T7 RNA polymerase (P00573 whole entry): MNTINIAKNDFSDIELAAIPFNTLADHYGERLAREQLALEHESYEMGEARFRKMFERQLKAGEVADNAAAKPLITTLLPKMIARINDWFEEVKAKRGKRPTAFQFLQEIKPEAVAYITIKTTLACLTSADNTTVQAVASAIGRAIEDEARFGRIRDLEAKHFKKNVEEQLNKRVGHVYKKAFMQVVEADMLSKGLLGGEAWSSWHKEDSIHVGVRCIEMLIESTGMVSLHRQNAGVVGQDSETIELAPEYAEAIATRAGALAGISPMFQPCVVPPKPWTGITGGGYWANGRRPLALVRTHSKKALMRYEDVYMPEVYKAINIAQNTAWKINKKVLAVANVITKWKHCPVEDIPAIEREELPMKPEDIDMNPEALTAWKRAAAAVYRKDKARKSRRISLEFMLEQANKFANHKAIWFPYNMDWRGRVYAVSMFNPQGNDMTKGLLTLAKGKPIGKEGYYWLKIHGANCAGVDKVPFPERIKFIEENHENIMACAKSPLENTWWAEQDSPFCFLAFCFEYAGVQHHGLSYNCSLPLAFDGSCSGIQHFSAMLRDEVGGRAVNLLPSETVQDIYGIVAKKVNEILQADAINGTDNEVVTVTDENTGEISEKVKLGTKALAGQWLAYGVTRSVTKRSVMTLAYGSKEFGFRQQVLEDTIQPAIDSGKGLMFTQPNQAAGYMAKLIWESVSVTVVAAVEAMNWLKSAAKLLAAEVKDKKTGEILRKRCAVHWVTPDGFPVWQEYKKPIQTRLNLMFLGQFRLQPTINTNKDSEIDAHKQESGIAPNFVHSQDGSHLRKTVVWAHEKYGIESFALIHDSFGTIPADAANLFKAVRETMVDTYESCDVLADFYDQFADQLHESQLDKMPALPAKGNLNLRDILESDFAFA

For `Nc1ccn([C@@H]2O[C@H](COP(=O)(O)OP(=O)(O)OP(=O)(O)O)C(O)C2O)c(=S)n1` (stereo partly drawn) [Compound 00901014010, 2-Thio-CTP], the “EPO In Vitro Transcription yield” value (T7 RNA polymerase) was 0.0061 mg, the “GCSF In Vitro Transcription yield” value (T7 RNA polymerase) was 0.0076 mg and the “Luc In Vitro Transcription yield” value (T7 RNA polymerase) was 0.0073 mg.
With `Nc1ncnc2c1nnn2[C@@H]1O[C@H](COP(=O)(O)OP(=O)(O)OP(=O)(O)O)C(O)C1O` (stereo partly drawn) [00901011003 (377), 8-Aza-ATP] the “EPO In Vitro Transcription yield” value (T7 RNA polymerase) was 0.0055 mg, the “GCSF In Vitro Transcription yield” value (T7 RNA polymerase) was 0.03 mg and the “Luc In Vitro Transcription yield” value (T7 RNA polymerase) was 0.0262 mg.
With `Cn1c(=N)ccn([C@@H]2O[C@H](COP(=O)(O)OP(=O)(O)OP(=O)(O)O)C(O)C2O)c1=O` (stereo partly drawn) [Compound 00901014006, 3-Methyl-CTP] the “EPO In Vitro Transcription yield” value (T7 RNA polymerase) was 0.0060 mg, the “GCSF In Vitro Transcription yield” value (T7 RNA polymerase) was 0.0141 mg and the “Luc In Vitro Transcription yield” value (T7 RNA polymerase) was 0.0068 mg.
For “1-methyl-pseudouridine TP, ATP, GTP, CTP”, the “Luc mRNA RANTES” value (BJ fibroblast cells) was 5473 pg/mL, the “hEpo mRNA RANTES” value (BJ fibroblast cells) was 8780 pg/mL and the “hGCSF mRNA RANTES” value (BJ fibroblast cells) was 4816 pg/mL.
With `Cn1c(=O)[nH]cc([C@@H]2O[C@H](COP(=O)(O)OP(=O)(O)OP(=O)(O)O)C(O)C2O)c1=O` (stereo partly drawn) [00901015187 (236), 3-Methyl-pseudo-UTP] the “EPO In Vitro Transcription yield” value (T7 RNA polymerase) was 0.0125 mg, the “GCSF In Vitro Transcription yield” value (T7 RNA polymerase) was 0.0120 mg and the “Luc In Vitro Transcription yield” value (T7 RNA polymerase) was 0.0152 mg.
With `O=c1[nH]c(=O)n(CC(F)(F)F)cc1[C@@H]1O[C@H](COP(=O)(O)OP(=O)(O)OP(=O)(O)O)C(O)C1O` (stereo partly drawn) [03601015005 (175), 1-(2,2,2-Trifluoroethyl) pseudo-UTP] the “EPO In Vitro Transcription yield” value (T7 RNA polymerase) was 0.3379 mg, the “GCSF In Vitro Transcription yield” value (T7 RNA polymerase) was 0.2332 mg and the “Luc In Vitro Transcription yield” value (T7 RNA polymerase) was 0.4388 mg.
In the case of `Nc1nc(=O)n([C@@H]2O[C@H](COP(=O)(O)OP(=O)(O)OP(=O)(O)O)C(O)C2O)cc1C(F)(F)F` (stereo partly drawn) [00901016002 (351), 5-Trifluoromethyl-CTP], the “interferon-alpha concentration in PBMC supernatant” value (from here on “interferon-alpha concentration”) (human PBMC; Luc mRNA, 1st value in cell) is reported as 6670 pg/mL, the “interferon-alpha concentration” value (human PBMC; Luc mRNA, 2nd value in cell) is reported as 2190 pg/mL and the “interferon-alpha concentration” value (human PBMC; Luc mRNA, 3rd value in cell) is reported as 6410 pg/mL. The “interferon-alpha concentration” value (human PBMC; hEPO mRNA, 1st value in cell) was 4440 pg/mL, the “interferon-alpha concentration” value (human PBMC; hEPO mRNA, 2nd value in cell) was 3100 pg/mL and the “interferon-alpha concentration” value (human PBMC; hEPO mRNA, 3rd value in cell) was 1412.5 pg/mL. The “interferon-alpha concentration” value (human PBMC; hGCSF mRNA, 1st value in cell) was 6253.33 pg/mL, the “interferon-alpha concentration” value (human PBMC; hGCSF mRNA, 2nd value in cell) was 6725 pg/mL and the “interferon-alpha concentration” value (human PBMC; hGCSF mRNA, 3rd value in cell) was 6280 pg/mL.
In the case of pseudouridine TP, ATP, GTP, CTP, the “Luc mRNA RANTES” value (BJ fibroblast cells) is reported as 4600 pg/mL, the “hEpo mRNA RANTES” value (BJ fibroblast cells) is reported as 5490 pg/mL and the “hGCSF mRNA RANTES” value (BJ fibroblast cells) is reported as 5016 pg/mL.
With 5-methoxy-uridine TP, ATP, GTP, UTP the “Luc mRNA RANTES” value (BJ fibroblast cells) was 33.33 pg/mL, the “hEpo mRNA RANTES” value (BJ fibroblast cells) was -6.66 pg/mL and the “hGCSF mRNA RANTES” value (BJ fibroblast cells) was -6.66 pg/mL.
In the case of “5-hydroxymethyl-cytidine TP, ATP, GTP, UTP”, the “Luc mRNA RANTES” value (BJ fibroblast cells) is reported as 9826 pg/mL, the “hEpo mRNA RANTES” value (BJ fibroblast cells) is reported as 2160 pg/mL and the “hGCSF mRNA RANTES” value (BJ fibroblast cells) is reported as 9063 pg/mL.
With `O=c1[nH]c(=S)ccn1[C@@H]1O[C@H](COP(=O)(O)OP(=O)(O)OP(=O)(O)O)C(O)C1O` (stereo partly drawn) [00901013011 (2), 4-Thio-UTP] the “EPO In Vitro Transcription yield” value (T7 RNA polymerase) was 0.0416 mg, the “GCSF In Vitro Transcription yield” value (T7 RNA polymerase) was 0.0759 mg and the “Luc In Vitro Transcription yield” value (T7 RNA polymerase) was 0.1625 mg.
